Article PMC9181852, “In Vivo and In Vitro Biological Evaluation and Molecular Docking Studies of Compounds Isolated from Micromeria biflora (Buch. Ham. ex D.Don) Benth” (Molecules, 2022)

How the values were obtained:
[1] = Inclined plane muscle relaxation model; format: in vivo, mice (Balb/c)
Experimental: (§1) Healthy mice (Balb/c) with weight ranging from 20 to 22 g and ages 9 to 10 weeks were used in this screening model. The grown animals were provided with standard laboratory conditions such as standard food and water ad libitum. The in vivo biological screening test was performed at the Department of Veterinary Medicine, College of Agriculture and Veterinary Medicine, Qassim University Buraydah, Saudi Arabia, as well as Swabi University, KP, Pakistan, according to published procedures.
An inclined plane screening procedure was adapted to identify the muscle relaxation effects of salicylalazine isolated from M. biflora according to a reported procedure. The inclined plane used in screening contained two plywood boards, and these boards were connected, where one board was at 60 0 from the base while the other one was aligned from the base. Various groups of animals were distributed into several groups; each group comprised six animals (n = 6). Animals in each group were administered water (10 mL/kg), standard drug (diazepam, 1 mg/kg), and salicylalazine at different doses of 2.5, 5, 10, 15, and 20 mg/kg, i.p. After various time intervals, such as 30, 60, and 90 min post-administration, animals were allowed on the higher part of the inclined plane for 30 s to drop or hang.

MDR2780AD = test: Anticancer MTT assay, MDR2780AD; format: cell-based; conditions: 24 h
[2] = tested on: LCMK-2 monkey kidney cells; test: Cytotoxicity MTT assay, LCMK-2 monkey kidney cells; format: cell-based
Experimental: Salicylalazine isolated from M. biflora was also screened for in vitro cytotoxicity using mouse hepatocytes and LCMK-2 monkey kidney cells. According to the MTT assay, salicylalazine was incubated for 24 h and the viability of the cell was identified. In this screening test, the cells were kept in RPMI 1640 medium as per the reported method. The medium used in this experiment consisted of streptomycin sulfate, NaHCO3 solution, and penicillin sodium salt, and FBS in proper proportion. The initial seeding of 8.6 × 10^3 mice hepatocytes and 7.1 × 10^3 LCMK-2 cells was indicated in 96 well plates. The cells were preserved with salicylalazine at different concentrations, and vehicle (0.2% DMSO), and hatching was performed for […] by MTT following our previously reported method.

COX-1 = COX-1 (Homo sapiens, UniProt P23219); test: In vitro COX-1 inhibition (screening kit)
Experimental: (§3) The in vitro inhibition of cyclooxygenases (COX-1 and COX-2) by the isolated compounds was determined using screening kits.

HepG2 = test: Anticancer MTT assay, HepG2; format: cell-based; conditions: Homo sapiens, 24 h
Experimental: (§2) The MTT assay was used to assess the cytotoxicity of salicylalazine isolated from M. biflora as per the previously documented method. For the MTT assay, Gibco BRL was combined with 100 µg/mL of penicillin sodium salts, 10% FBS (Gibco), and sodium carbonate (2 mg/mL). The prepared medium was used to keep three human cancer cell lines: human hepatoma (HepG2), human A498, and renal NCI-h226 non-small cell lung). Mouse hepatocytes, including HepG2 and HepG-R, were planted in 96-well plates. The cell lines were preserved with salicylalazine (1.5–100 μM), hatched for 24 h, and then they were tracked using the MTT procedure^14. This method was used for all tested cell lines. The IC50 value of salicylalazine in different cell lines was calculated from the concentration-effect curves. The standard drug used in this experiment was paclitaxel.

A498 = test: Anticancer MTT assay, A498; format: cell-based; conditions: Homo sapiens, 24 h
Experimental: as §2

NCI-H226 = test: Anticancer MTT assay, NCI-H226; format: cell-based; conditions: Homo sapiens, 24 h
Experimental: as §2

Hot plate analgesic test = format: in vivo, mice (Balb/c)
Experimental: as §1
The analgesic effect of salicylalazine isolated from M. biflora was obtained with help of a hot plate according to the published method. The animals were distributed into different groups according to the previously reported method. A preliminary screening test was performed on the animals using a hot plate (Harvard apparatus) sustained at 55 ± 2 °C. […] Group I (positive control) was administered with the standard drug, while Group II (negative control) was administered with normal saline. The other groups of animals were administered with 2.5, 5, 10, 15, and 20 mg/kg (PO). […] To avoid tissue damage, a cut-off time of 30 s was used for every animal. The latency time was recorded for all groups (n = 6) at consistent intervals (30, 60, 90, and 120 min).

COX-2 = target: T1, COX-2 (Homo sapiens, UniProt P35354); test: In vitro COX-2 inhibition (screening kit); format: biochemical
T1 construct: purchased
T1 sequence (P35354 18-604): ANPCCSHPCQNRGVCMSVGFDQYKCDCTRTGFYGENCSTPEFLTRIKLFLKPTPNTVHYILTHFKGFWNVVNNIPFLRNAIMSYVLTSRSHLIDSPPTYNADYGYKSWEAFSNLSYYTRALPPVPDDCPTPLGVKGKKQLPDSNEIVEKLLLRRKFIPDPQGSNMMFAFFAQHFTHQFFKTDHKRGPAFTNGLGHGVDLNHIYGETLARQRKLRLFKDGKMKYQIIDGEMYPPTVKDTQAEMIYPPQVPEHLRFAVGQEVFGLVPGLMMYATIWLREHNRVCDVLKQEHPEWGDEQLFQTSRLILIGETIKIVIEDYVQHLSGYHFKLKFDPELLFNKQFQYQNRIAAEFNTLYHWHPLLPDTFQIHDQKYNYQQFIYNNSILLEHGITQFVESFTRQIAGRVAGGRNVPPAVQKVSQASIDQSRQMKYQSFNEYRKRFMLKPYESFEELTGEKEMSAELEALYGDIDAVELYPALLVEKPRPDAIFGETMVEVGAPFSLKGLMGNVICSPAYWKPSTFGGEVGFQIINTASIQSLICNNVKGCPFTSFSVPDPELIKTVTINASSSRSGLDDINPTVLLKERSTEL
Experimental: as §3

Sequence of COX-1 (P23219 24-599): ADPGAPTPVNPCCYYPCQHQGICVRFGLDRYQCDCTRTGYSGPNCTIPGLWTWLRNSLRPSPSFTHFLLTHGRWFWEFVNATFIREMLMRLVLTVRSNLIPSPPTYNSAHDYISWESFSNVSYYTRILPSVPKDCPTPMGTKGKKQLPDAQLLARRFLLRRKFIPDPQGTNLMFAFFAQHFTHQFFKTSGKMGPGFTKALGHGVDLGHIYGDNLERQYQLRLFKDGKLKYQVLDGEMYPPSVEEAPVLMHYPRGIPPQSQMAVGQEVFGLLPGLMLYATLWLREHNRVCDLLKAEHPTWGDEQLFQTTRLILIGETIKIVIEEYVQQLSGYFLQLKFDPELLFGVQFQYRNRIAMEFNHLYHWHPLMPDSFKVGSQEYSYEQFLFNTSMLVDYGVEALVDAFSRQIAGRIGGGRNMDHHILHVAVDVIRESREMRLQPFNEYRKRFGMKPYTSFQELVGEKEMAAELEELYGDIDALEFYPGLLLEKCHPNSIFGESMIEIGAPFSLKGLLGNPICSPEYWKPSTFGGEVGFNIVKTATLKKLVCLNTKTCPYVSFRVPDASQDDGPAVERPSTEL

SMILES: Oc1ccccc1/C=N/N=C/c1ccccc1O [Salicylalazine, salicylalazine]
- Inclined Plane Test (%) ([1]; dose 2.5 mg/kg i.p., 30 min): 20.11 ± 1.45%
- Inclined Plane Test (%) ([1]; dose 2.5 mg/kg i.p., 60 min): 26.23 ± 1.66%
- Inclined Plane Test (%) ([1]; dose 2.5 mg/kg i.p., 90 min): 27.45 ± 1.23%
- Inclined Plane Test (%) ([1]; dose 5 mg/kg i.p., 30 min): 27.34 ± 1.66%
- Inclined Plane Test (%) ([1]; dose 5 mg/kg i.p., 60 min): 33.09 ± 1.60%
- Inclined Plane Test (%) ([1]; dose 5 mg/kg i.p., 90 min): 34.09 ± 1.30%
- Inclined Plane Test (%) ([1]; dose 10 mg/kg i.p., 30 min): 33.98 ± 1.40%
- Inclined Plane Test (%) ([1]; dose 10 mg/kg i.p., 60 min): 38.08 ± 1.55%
- Inclined Plane Test (%) ([1]; dose 10 mg/kg i.p., 90 min): 39.43 ± 1.28%
- Inclined Plane Test (%) ([1]; dose 15 mg/kg i.p., 30 min): 44.53 ± 1.43%
- Inclined Plane Test (%) ([1]; dose 15 mg/kg i.p., 60 min): 50.94 ± 1.50%
- Inclined Plane Test (%) ([1]; dose 15 mg/kg i.p., 90 min): 51.52 ± 1.20%
- Inclined Plane Test (%) ([1]; dose 20 mg/kg i.p., 30 min): 52.09 ± 1.30%
- Inclined Plane Test (%) ([1]; dose 20 mg/kg i.p., 60 min): 59.34 ± 1.45%
- Inclined Plane Test (%) ([1]; dose 20 mg/kg i.p., 90 min): 60.88 ± 1.19%
- IC50 (MDR2780AD): 0.85 ± 0.09 µM
- In vitro cytotoxicity (MTT) [2]: did not exhibit any considerable cytotoxicity
- IC50 (COX-1): 44.1 ± 1.18 µM
- IC50 (HepG2): 20.8 ± 0.38 µM
- IC50 (A498): 115.5 ± 0.42 µM
- IC50 (NCI-H226): 64.98 ± 0.11 µM
- Latency time on hot plate (Hot plate analgesic test; dose 2.5 mg/kg, 30 min): 13.33 ± 0.55 s
- Latency time on hot plate (Hot plate analgesic test; dose 2.5 mg/kg, 60 min): 14.40 ± 0.83 s
- Latency time on hot plate (Hot plate analgesic test; dose 2.5 mg/kg, 90 min): 14.33 ± 0.64 s
- Latency time on hot plate (Hot plate analgesic test; dose 2.5 mg/kg, 120 min): 14.01 ± 0.43 s
- Latency time on hot plate (Hot plate analgesic test; dose 5 mg/kg, 30 min): 15.12 ± 0.80 s
- Latency time on hot plate (Hot plate analgesic test; dose 5 mg/kg, 60 min): 18.09 ± 0.69 s
- Latency time on hot plate (Hot plate analgesic test; dose 5 mg/kg, 90 min): 18.03 ± 0.90 s
- Latency time on hot plate (Hot plate analgesic test; dose 5 mg/kg, 120 min): 17.97 ± 1.00 s
- Latency time on hot plate (Hot plate analgesic test; dose 10 mg/kg, 30 min): 18.65 ± 0.95 s
- Latency time on hot plate (Hot plate analgesic test; dose 10 mg/kg, 60 min): 20.89 ± 0.90 s
- Latency time on hot plate (Hot plate analgesic test; dose 10 mg/kg, 90 min): 20.77 ± 0.87 s
- Latency time on hot plate (Hot plate analgesic test; dose 10 mg/kg, 120 min): 19.97 ± 0.80 s
- Latency time on hot plate (Hot plate analgesic test; dose 15 mg/kg, 30 min): 21.43 ± 0.50 s
- Latency time on hot plate (Hot plate analgesic test; dose 15 mg/kg, 60 min): 22.89 ± 0.80 s
- Latency time on hot plate (Hot plate analgesic test; dose 15 mg/kg, 90 min): 22.00 ± 0.98 s
- Latency time on hot plate (Hot plate analgesic test; dose 15 mg/kg, 120 min): 21.65 ± 0.98 s
- Latency time on hot plate (Hot plate analgesic test; dose 20 mg/kg, 30 min): 23.00 ± 0.44 s
- Latency time on hot plate (Hot plate analgesic test; dose 20 mg/kg, 60 min): 23.90 ± 0.97 s
- Latency time on hot plate (Hot plate analgesic test; dose 20 mg/kg, 90 min): 22.80 ± 1.05 s
- Latency time on hot plate (Hot plate analgesic test; dose 20 mg/kg, 120 min): 22.79 ± 1.09 s
- IC50 (COX-2): 9.08 ± 0.11 µM
- SI (COX-2; SI = IC50 (COX-1)/IC50 (COX-2)): 4.85
- melting point: 215 to 218 °C
